Results on 9 compounds are retold here after PubChem BioAssay (NCI).

Test systems include CCRF-CEM leukemia; COLO 205 colon; HCT-116 colon; HOP-62 NSCLC; LOX IMVI melanoma; MDA-MB-231 breast; SF-268 CNS; SNB-75 CNS; UACC-62 melanoma; RPMI-8226 leukemia.
Holding throughout (assay): DTP human tumour cell line panel, 48 h

The GI50 is the concentration that inhibits growth by half. One may read the TGI as the concentration at which net growth stops. Lower therefore signals more potent growth arrest.

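All cell lines were grown in 96-well plates and treated with compound for 48 hours. Abbreviation: GI50, concentration required for 50% inhibition of growth. TGI: total growth inhibition.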

As to `COc1cc2c3c(n(CCCCNC(=O)OCC4c5ccccc5-c5ccccc54)c(=O)c2cc1OC)-c1cc2c(cc1C3=O)OCO2`, the GI50 in the assay with CCRF-CEM leukemia is 2.75 µM; in the assay on COLO 205 colon it was 49.9 µM; in the assay with HCT-116 colon, 7.73 µM; in the assay with HOP-62 NSCLC, 5.62 µM; with LOX IMVI melanoma, 7.08 µM; in the assay with MDA-MB-231 breast it was 26.5 µM. Besides, the GI50 in the assay on SF-268 CNS was 6.7 µM; in the assay on SNB-75 CNS it was 28.9 µM; in the assay on UACC-62 melanoma it was 45.7 µM. The TGI in the assay with CCRF-CEM leukemia was more than 100 µM; in the assay on COLO 205 colon, more than 100 µM; with HCT-116 colon it was 33.6 µM; with HOP-62 NSCLC it was 34 µM; in the assay with LOX IMVI melanoma, more than 100 µM; in the assay on MDA-MB-231 breast, more than 100 µM. In addition, the TGI in the assay with SF-268 CNS, in the assay on SNB-75 CNS and with UACC-62 melanoma was more than 100 µM in each case.
Regarding `COc1cc(C(=O)/C=C/c2c(-c3ccc(F)cc3)nc3ncccn23)cc(OC)c1OC`, the GI50 is 4.05 µM in the assay on CCRF-CEM leukemia; 1.53 µM in the assay on HCT-116 colon; 3.12 µM with HOP-62 NSCLC; 2.99 µM in the assay with MDA-MB-231 breast; 2.56 µM in the assay with RPMI-8226 leukemia; 1.9 µM in the assay with SF-268 CNS. For the same compound, the GI50 in the assay with SNB-75 CNS is 2.39 µM. Further, the TGI in the assay on CCRF-CEM leukemia was more than 100 µM; in the assay with HCT-116 colon, 4.45 µM; in the assay with HOP-62 NSCLC it was 24.5 µM; in the assay on MDA-MB-231 breast, 16.5 µM; in the assay with RPMI-8226 leukemia, more than 100 µM; with SF-268 CNS it was 14.1 µM. Also, the concentration for total growth inhibition (TGI) with SNB-75 CNS is 9.37 µM.
Turning to `COc1cc2c3c(n(CCCNC(=O)OCC4c5ccccc5-c5ccccc54)c(=O)c2cc1OC)-c1cc2c(cc1C3=O)OCO2`, the GI50 was more than 100 µM with COLO 205 colon; 13.8 µM with HCT-116 colon; 13.7 µM in the assay with HOP-62 NSCLC; 1.48 µM in the assay with LOX IMVI melanoma; 15.9 µM with MDA-MB-231 breast; more than 28.3 µM with RPMI-8226 leukemia. For the same compound, the GI50 in the assay on SF-268 CNS was 16.6 µM; in the assay with SNB-75 CNS, 34.8 µM; in the assay with UACC-62 melanoma it was 33.4 µM. Further, the TGI with COLO 205 colon is more than 100 µM; with HCT-116 colon, more than 100 µM; in the assay on HOP-62 NSCLC, more than 74 µM; with LOX IMVI melanoma it was more than 37.1 µM; with MDA-MB-231 breast, more than 74.2 µM; in the assay with RPMI-8226 leukemia it was more than 100 µM. The concentration for total growth inhibition (TGI) with SF-268 CNS was more than 72.4 µM; in the assay on SNB-75 CNS, more than 86.4 µM; with UACC-62 melanoma, more than 61.2 µM.
As for `Cc1cc(NCCCCNc2ccnc3cc(Cl)ccc23)nc(Nc2ccc(C(=O)N3CCCC3)cc2)n1`, the GI50 in the assay on CCRF-CEM leukemia was 2.86 µM; with COLO 205 colon, 1.81 µM; in the assay on HCT-116 colon, 1.59 µM; with HOP-62 NSCLC, 2.21 µM; in the assay with LOX IMVI melanoma, 1.48 µM; in the assay on MDA-MB-231 breast it was 2.14 µM. Also, the GI50 is 1.34 µM with RPMI-8226 leukemia, 2.1 µM in the assay with SF-268 CNS and 1.91 µM with SNB-75 CNS. In addition, the total growth inhibition concentration (TGI) with CCRF-CEM leukemia was more than 100 µM; in the assay on COLO 205 colon, 3.56 µM; in the assay on HCT-116 colon it was 3.55 µM; in the assay with HOP-62 NSCLC, 4.74 µM; with LOX IMVI melanoma, 3.05 µM; in the assay with MDA-MB-231 breast, 5.12 µM. Moreover, the TGI amounted to 5.3 µM with RPMI-8226 leukemia, 6.21 µM with SF-268 CNS and 3.76 µM with SNB-75 CNS.
Consider `CCOCC(=O)N[C@H]1CCc2cc(OC(=O)COCC)c(OC)c(OC)c2-c2ccc(SC)c(=O)cc21`, for which the GI50 in the assay with CCRF-CEM leukemia is 0.0127 µM; with MDA-MB-231 breast, 0.036 µM; in the assay on SF-268 CNS it was 0.0431 µM. Besides, the TGI in the assay with COLO 205 colon is 0.054 µM; in the assay with HOP-62 NSCLC it was more than 100 µM; with LOX IMVI melanoma, more than 100 µM; in the assay with RPMI-8226 leukemia it was more than 100 µM; in the assay with SNB-75 CNS, more than 100 µM; with UACC-62 melanoma, more than 100 µM.
As to `CN1C(=O)c2cc([N+](=O)[O-])ccc2[C@H]2C(=O)c3cc4c(cc3[C@H]21)OCO4`, the GI50 was 0.225 µM in the assay with COLO 205 colon; 0.0141 µM in the assay on HCT-116 colon; 0.158 µM in the assay on HOP-62 NSCLC; 0.0161 µM with LOX IMVI melanoma; 0.36 µM in the assay on MDA-MB-231 breast; 0.0435 µM in the assay on RPMI-8226 leukemia. The figures for the GI50 in the assay with SF-268 CNS, in the assay on SNB-75 CNS and in the assay on UACC-62 melanoma were 0.0243 µM, 0.12 µM and 0.0356 µM, respectively. In addition, the TGI is more than 61.2 µM in the assay with COLO 205 colon; 0.128 µM in the assay with HCT-116 colon; more than 100 µM in the assay on HOP-62 NSCLC; 0.155 µM in the assay on LOX IMVI melanoma; 4.71 µM in the assay with MDA-MB-231 breast; 1.68 µM with SF-268 CNS. Also, the results for the total growth inhibition concentration (TGI) with SNB-75 CNS and in the assay with UACC-62 melanoma were more than 100 µM and 0.337 µM, respectively.
Regarding `Cc1ccc(/C=C/C(=O)c2ccc(N)cc2)c(C)c1`, the GI50 with COLO 205 colon was 2.43 µM; with HCT-116 colon it was 1.91 µM; in the assay with HOP-62 NSCLC, 17 µM; in the assay on LOX IMVI melanoma it was 0.321 µM; in the assay with MDA-MB-231 breast it was 2.68 µM; with RPMI-8226 leukemia, 2.12 µM. Also, the GI50 with SF-268 CNS was 1.88 µM; in the assay with SNB-75 CNS it was 2.01 µM; in the assay with UACC-62 melanoma it was 2.52 µM. Moreover, the TGI in the assay with COLO 205 colon worked out at 6.07 µM; in the assay on HCT-116 colon, 3.76 µM; in the assay on HOP-62 NSCLC it was 38 µM; in the assay on LOX IMVI melanoma it was 1.18 µM; in the assay on MDA-MB-231 breast it was 6.75 µM; with RPMI-8226 leukemia, 4.99 µM. The figures for the TGI in the assay with SF-268 CNS, in the assay with SNB-75 CNS and in the assay with UACC-62 melanoma were 3.7 µM, 7.45 µM and 7.16 µM, respectively.
`CCCCCCCCCCCCSC(=NC)NC`: the GI50 is 2.63 µM in the assay with CCRF-CEM leukemia; 1.94 µM in the assay on HOP-62 NSCLC; 2.02 µM with MDA-MB-231 breast; 2.07 µM with RPMI-8226 leukemia; 3.82 µM in the assay with SF-268 CNS; 1.78 µM in the assay with SNB-75 CNS. For the same compound, in the assay with UACC-62 melanoma, the GI50 was 1.68 µM. Also, the TGI was determined as 9.97 µM in the assay on CCRF-CEM leukemia; 4.59 µM with HOP-62 NSCLC; 4.15 µM with MDA-MB-231 breast; 4.77 µM in the assay on RPMI-8226 leukemia; 22.5 µM in the assay on SF-268 CNS; 3.55 µM in the assay on SNB-75 CNS. The same compound returned a TGI in the assay on UACC-62 melanoma of 3.21 µM.
For the compound `Cc1[nH]n(-c2ccc(S(=O)(=O)O)cc2)c(=O)c1N=Nc1ccccc1`, the total growth inhibition concentration (TGI) with COLO 205 colon, in the assay on HCT-116 colon, with HOP-62 NSCLC, in the assay with LOX IMVI melanoma, with MDA-MB-231 breast and in the assay with RPMI-8226 leukemia was more than 100 µM throughout. The concentration for total growth inhibition (TGI) in the assay with SF-268 CNS, in the assay on SNB-75 CNS and in the assay with UACC-62 melanoma was more than 100 µM throughout.
